Measured values from US20160368895A1, “PULMONARY HYPERTENSION TREATING AGENT” (THE UNIVERSITY OF TOKYO, priority 2013, published 2016).

Columns and labels:
[1] = target: T1, human PGI2 receptors (hIP) (Homo sapiens, UniProt P43119); assay: Method B: positive allosteric modulator activity, cAMP in CHO/hIP cells with 1 nM epoprostenol; type: cell-based; conditions: cAMP relative to 1 nM epoprostenol alone
T1 construct: expressed in transfected cells; host or cells: CHO-K1
Description: The positive allosteric modulator activity of a test compound was measured as a change in the amount of intracellular cyclic AMP (cAMP) in the presence of 1 nM of the IP agonist epoprostenol (manufactured by GlaxoSmithKline), using CHO-K1 cells (CHO/hIP cells) in which human PGI2 receptors (hIP) are stably expressed.
An amount of 5 μL of a mixture (diluted in F-12 culture medium (manufactured by GIBCO) including 0.1% BSA) of epoprostenol dissolved in DMSO and a test compound dissolved in DMSO was dispensed in advance into a 384-well black microplate, and 5 μL of CHO/hIP cells suspended at a concentration of 1.4×10^6 cells/mL in F-12 culture medium including 0.1% BSA were added to the microplate. After 40 minutes of incubation at room temperature, the amount of cAMP was measured using a cAMP assay kit (cAMP HiRange, manufactured by Cisbio Bioassays). Specifically, 5 μL of a cAMP-d2 solution (including a cell lysate) from the kit were added and the reaction was stopped, then 5 μL of a fluorescence-labeled cAMP antibody solution from the kit were added and incubation was performed for 1 hour at room temperature, after which fluorescence was measured using a PHERAstar plate reader (manufactured by BMG) in HTRF (registered trademark) mode. The amount of cAMP in each well was calculated from a cAMP calibration curve obtained using a standard sample, and the activity of each test compound is noted below as a ratio T/C (%) based on the amount of cAMP for 1 nM of epoprostenol alone.

[2] = target: T1, human PGI2 receptors (hIP); assay: Method C: effect on epoprostenol-cAMP production curve in CHO/hIP cells (left shift value); type: cell-based; conditions: Table 4, concentration of test compound that halves the EC50 of epoprostenol
Description: The effect of a test compound on the cAMP production curve with respect to the IP agonist epoprostenol (manufactured by GlaxoSmithKline) was investigated using CHO-K1 cells (CHO/hIP cells) in which human PGI2 receptors (hIP) are stably expressed.
(§1) An amount of 5 μL of a mixture (diluted in F-12 culture medium (manufactured by GIBCO) including 0.1% BSA) of epoprostenol dissolved in DMSO and a test compound dissolved in DMSO was dispensed in advance into a 384-well black microplate, and 5 μL of CHO/hIP cells suspended at a concentration of 1.4×10^6 cells/mL in F-12 culture medium including 0.1% BSA were added to the microplate. After 40 minutes of incubation at room temperature, the amount of cAMP was measured using a cAMP assay kit (cAMP HiRange, manufactured by Cisbio Bioassays). Specifically, 5 μL of a cAMP-d2 solution (including a cell lysate) from the kit were added and the reaction was stopped, then 5 μL of a fluorescence-labeled cAMP antibody solution from the kit were added and incubation was performed for 1 hour at room temperature, after which fluorescence was measured using a PHERAstar plate reader (manufactured by BMG) in HTRF (registered trademark) mode. The amount of cAMP in each well was calculated from a cAMP calibration curve obtained using a standard sample, and an epoprostenol-cAMP production curve for the presence of various concentrations of the test compound was created.

[3] = target: T1, human PGI2 receptors (hIP); assay: Method D: effect on cAMP production in human aortic smooth muscle cells (left shift value); type: cell-based; conditions: concentration of test compound that halves the EC50 of epoprostenol
Description: The effect of a test compound on the cAMP production curve with respect to the IP agonist epoprostenol (manufactured by GlaxoSmithKline) was investigated using human aortic smooth muscle cells known to express human PGI2 receptors (hIP).
as §1, with “created. […]” for “created.”

[4] = tested on: thoracic aorta of the marmot; assay: Magnus test using a blood vessel removed from a marmot; conditions: 20 μM of test compound; FIG. 2
Description: An incision was made in the thoracic region of a marmot (slc/Harley, male, 11-12 weeks of age) under anesthesia, and the thoracic aorta of the marmot was removed. The vascular endothelium was removed using a thread, after which the blood vessel was cut into a round slice having a width of approximately 2 mm and fixed to a fixing rod using thread or a stainless steel hook, and placed in a 10 mL Magnus tube maintained at a temperature of 37° C. and saturated with a 95% O2/5% CO2 gas mixture, and a tension of 1 g was placed on the blood vessel. When the tension on the specimen became stable, phenylephrine (phenylephrine hydrochloride, PHE, manufactured by Sigma-Aldrich Japan, final concentration: 3×10^−6 mol/L) was added thereto to cause the specimen to contract, the test compound or a solvent was added when the contraction became stable, the IP agonist beraprost (beraprost sodium, manufactured by Cayman Chemical) was cumulatively added after 15 minutes to give a final concentration of 1 nM to 1000 nM, and the change in relaxation response was recorded.
The contraction inhibition rate for each set of data was calculated using a contraction rate of 100% as the control (DMSO addition).

T1 sequence (P43119 whole entry): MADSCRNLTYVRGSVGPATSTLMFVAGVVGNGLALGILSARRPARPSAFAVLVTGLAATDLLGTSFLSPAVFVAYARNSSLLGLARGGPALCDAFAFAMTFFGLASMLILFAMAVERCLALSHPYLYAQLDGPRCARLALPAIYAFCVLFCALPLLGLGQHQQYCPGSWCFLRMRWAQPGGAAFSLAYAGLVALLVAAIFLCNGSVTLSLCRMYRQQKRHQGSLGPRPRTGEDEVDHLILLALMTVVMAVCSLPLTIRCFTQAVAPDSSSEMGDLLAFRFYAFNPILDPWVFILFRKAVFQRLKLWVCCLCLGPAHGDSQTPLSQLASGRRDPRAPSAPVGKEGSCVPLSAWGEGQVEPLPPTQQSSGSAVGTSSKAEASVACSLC

| T/C ([1]; test concentration 10 uM) | left shift value [2] | T/C ([1]; test concentration 5 uM) | left shift value [3] | Structure (SMILES) | enhancement of vasoconstriction inhibition (vasorelaxation) with respect to beraprost [4] |
| --- | --- | --- | --- | --- | --- |
| 142.5% | 14.5 µM |  |  | Cc1ccccc1C(c1nnnn1C1(C)CCCCC1)N1CCc2ccccc2C1 (stereo not shown) [Example 42] |  |
| 156.4% | 10.9 µM |  |  | CC(C)(C)n1nnnc1C(c1ccc(O)cc1)N1CCc2ccccc2C1 (stereo not shown) [Example 5] |  |
| 177.2% | 5.5 µM |  |  | Cc1ccccc1C(c1nnnn1C(C)(C)C)N1CCc2ccccc2C1 (stereo not shown) [Example 25] |  |
| 102.7% | 78.3 µM |  |  | CC(C)(C)n1nnnc1C(c1ccccc1N)N1CCc2ccccc2C1 (stereo not shown) [Example 58, 2-((1-tert-butyl-1H-tetrazol-5-yl)(3,4-dihydroisoquinolin-2(1H)-yl)methyl)aniline] |  |
| 104.9% | 71.1 µM |  |  | COc1cccc(OC)c1C(c1nnnn1C(C)(C)C)N1CCc2ccccc2C1 (stereo not shown) [Example 37] |  |
| 119.7% | 38.4 µM |  |  | CC(C)(C)n1nnnc1C(c1ccco1)N1CCc2ccccc2C1 (stereo not shown) [Example 33] |  |
| 100.4% | 269.8 µM |  |  | CC(C)(C)n1nnnc1C(c1ccccc1[N+](=O)[O-])N1CCc2ccc(F)cc2C1 (stereo not shown) [Example 30] |  |
| 152.5% | 15.5 µM |  |  | CC(C)(C)n1nnnc1C(c1ccccc1Br)N1CCc2ccccc2C1 (stereo not shown) [Example 2] |  |
| 267.8% | 1.2 µM |  |  | COc1cc[nH]c1C(c1nnnn1C(C)(C)C)N1CCc2ccccc2C1 (stereo not shown) [Example 43] |  |
| 106.4% | 119.6 µM |  |  | COc1cc2ccccc2cc1C(c1nnnn1C(C)(C)C)N1CCc2ccccc2C1 (stereo not shown) [Example 23] |  |
| 172.6% | 5.7 µM |  |  | CC(C)(C)n1nnnc1C(c1c[nH]c2ccccc12)N1CCc2ccccc2C1 (stereo not shown) [Example 36] |  |
|  | 7.7 µM | 143.8% |  | COc1csc(C(c2nnnn2C(C)(C)C)N2CCc3ccccc3C2)c1 (stereo not shown) [Example 44] |  |
|  | 11.1 µM | 126.3% |  | COc1ccccc1C(c1nnnn1C1C2CC3CC(C2)CC1C3)N1CCc2ccccc2C1 (stereo not shown) [Example 20] |  |
| 149.6% | 8.3 µM |  |  | COc1ccccc1C(c1nnnn1C1(C)CCCC1)N1CCc2ccccc2C1 (stereo not shown) [Example 22] |  |
| 218.3% | 3.1 µM |  |  | CSc1ccccc1C(c1nnnn1C(C)(C)C)N1CCc2ccccc2C1 (stereo not shown) [Example 13] |  |
| 145.9% | 11.7 µM |  |  | CC(C)(C)n1nnnc1C(c1ccoc1)N1CCc2ccccc2C1 (stereo not shown) [Example 34] |  |
|  | 4.3 µM |  | 3.9 µM | COc1ccccc1C(c1nnnn1C(C)(C)C)N1CCc2ccccc2C1 (stereo not shown) [Example 51] | an enhancement of vasoconstriction inhibition (vasorelaxation) with respect to the IP agonist beraprost was recognized |

| T/C ([1]; test concentration 10 uM) | left shift value [2] | T/C ([1]; test concentration 5 uM) | left shift value [3] | Structure (SMILES) | enhancement of vasoconstriction inhibition (vasorelaxation) with respect to beraprost [4] |
| --- | --- | --- | --- | --- | --- |
| 184.2% | 7.2 µM |  |  | COc1ccc(C(c2nnnn2C(C)(C)C)N2CCc3ccccc3C2)c(F)c1 (stereo not shown) [Example 8] |  |
| 106.2% | 267.0 µM |  |  | Cc1ccccc1C(c1nnnn1C1(C)CCCCCC1)N1CCc2ccccc2C1 (stereo not shown) [Example 46] |  |
| 117.0% | 110.9 µM |  |  | CC(C)(C)n1nnnc1C(c1ccc(Cl)cc1)N1CCc2ccccc2C1 (stereo not shown) [Example 10] |  |
| 121.8% | 28.5 µM |  |  | CC(C)(C)n1nnnc1C(c1ccc[nH]1)N1CCc2ccccc2C1 (stereo not shown) [Example 35] |  |
|  | 71.4 µM | 100.6% |  | Cc1ccc(C(c2nnnn2C(C)(C)C)N2CCc3ccccc3C2)cc1 (stereo not shown) [Example 3] |  |
|  | 15.2 µM | 99.8% |  | Cc1ccc2c(c1)CN(C(c1ccccc1C)c1nnnn1C(C)(C)C)CC2 (stereo not shown) [Example 27] |  |
| 132.1% | 17.7 µM |  |  | COc1ncccc1C(c1nnnn1C(C)(C)C)N1CCc2ccccc2C1 (stereo not shown) [Example 14] |  |
| 116.3% | 61.25 µM |  |  | Cc1ccc2c(c1)CN(C(c1ccccc1C)c1nnnn1C(C)(C)C)CC2 (stereo not shown) [Example 24] |  |
|  | 5.7 µM | 144.3% |  | COc1ccccc1C(c1nnnn1C1(C)CCCCCC1)N1CCc2ccccc2C1 (stereo not shown) [Example 45] |  |
| 121.9% | 25.4 µM |  |  | CSc1ccccc1C(c1nnnn1C1(C)CCCCCC1)N1CCc2ccccc2C1 (stereo not shown) [Example 47] |  |
| 256.5% | 1.4 µM |  |  | CC(C)(C)n1nnnc1C(c1ccccc1O)N1CCc2ccccc2C1 (stereo not shown) [Example 57, 2-((1-tert-butyl-1H-tetrazol-5-yl)(3,4-dihydroisoquinolin-2(1H)-yl)methyl)phenol] |  |
| 229.7% | 2.0 µM |  |  | COc1ccccc1C(c1nnnn1C1(C)CCCCC1)N1CCc2ccccc2C1 (stereo not shown) [Example 21] |  |
| 186.2% | 3.5 µM |  |  | CC(C)(C)n1nnnc1C(C1=CC=CC1)N1CCc2ccccc2C1 (stereo not shown) [Example 31] |  |
|  | 4.7 µM |  | 2.9 µM | CC(C)(C)n1nnnc1C(c1ccccc1F)N1CCc2ccccc2C1 (stereo not shown) [Example 54] |  |
| 144.4% | 12.3 µM |  |  | CC(C)(C)n1nnnc1C(c1ccccc1)N1CCc2ccccc2C1 (stereo not shown) [Example 39] |  |
| 101.0% | 117.3 µM |  |  | CCOc1ccccc1C(C1=NNCN1C(C)(C)C)N1CCc2ccc(O)cc2C1 (stereo not shown) [Example 56] |  |
